Legend:
[1] = tested on: RAW 264.7 (mouse leukemic monocyte-macrophages); test: RAW 264.7 macrophages treated with metformin in vitro (qPCR, Western blot); format: cell-based
Experimental: Following treatment, cells were collected for RNA and protein extraction in order to perform subsequent analysis of gene expression of cytokines and polarization markers, and for analysis of signaling and metabolic pathways. […] Cells were collected for protein extraction for analysis of the activation of fibrosis-related pathways. […] The cells were fixed with 4% paraformaldehyde and blocked with 5% normal donkey serum for 1 h. They were incubated with the designated primary antibodies overnight at 4° C. then for 2 h with the appropriate secondary antibodies at RT. PBS was used for all washes and the stained samples were mounted with Prolong Gold with DAPI. Images were acquired using a confocal microscope. The antibodies used and image acquisition settings are described below. Both cell types were grown in Dulbecco's modified Eagle's medium (Sigma, St. Louis, Mo.) supplemented with 5% (v/v) heat inactivated fetal bovine serum (FBS; Sigma), 100 units/ml penicillin and streptomycin. Cells were cultured at 37° C. in a humidified atmosphere including 5% CO2.
Immediately following excision, tumor tissue was snap frozen and stored in liquid nitrogen. Total RNA was extracted and relative gene expression for macrophage M1/M2 markers was determined using a Sybr-green based standard protocol. In addition, total RNA was extracted and relative gene expression was determined using RT2 Profiler PCR Arrays system (Qiagen) on a Stratagene Mx3000P QPCR System using pre-made pathway-focused arrays (“Fibrosis”-Cat. Number: PAMM011Z; “Epithelial to Mesenchymal Transition (EMT)”-Cat. Number: PAMM090Z; “TGF-β signaling targets”-PAMM235Z; “Extracellular Matrix & Adhesion Molecules”-Cat. Number: PAMM013Z; and “Common cytokines ”-Cat. Number: PAMM021Z).
Each tumor sample was homogenized directly in lysis buffer for protein extraction. 20 ug of denatured protein per sample was loaded on 7%, 10% and 12% SDS-polyacrylamide gels. Antibodies used: phospho-p38 MAPKT^180/Y182 and p38; phospho-JNK (SAPK/JNK)^Thr183/Tyr185 and JNK; phospho-AKT^Ser473 and AKT, phospho-ERK(p44/42 MAPK)^T202/Y204 and ERK; phospho-NF-κB^Ser536 and NK-κB; p65^Ser536; phospho-Smad2^Ser465/467 and Smad2; phospho-IGF-I Receptor β^Tyr1135 and IGF; Phospho-IRS-1^Ser612 and IRS; IR; phpspho-stat3^Tyr705 and stat3; Phospho-AMPKα^Thr172 and Ampkα; phospho-Ampkβ^Ser108 and Ampk; phospho-ACC^Ser79 and ACC; Phospho-PDGF Receptor β^Tyr751 and PDGF Receptor β and snail, c-cadherin and vimentin, TGF-β, β-catenin, twist, LC3B. […] Quantification of protein expression relative to total receptor or β-actin was obtained using Image J software.

[2] = patients with type 2 diabetes taking this drug; cited from earlier work
pancreatic cancer = details: newly diagnosed pancreatic cancer cases, diabetic patients; cited from earlier work

CN(C)C(=N)N=C(N)N [metformin, 3-(diaminomethylidene)-1,1-dimethylguanidine]
activation of AMPKα and ACC in macrophages ([1]; ACC evident only in serum added media): activation of AMPKα
activation of STAT3, JNK, AKT and p38 in macrophages ([1]; concentrations lower than 0.2 mM, Western blot): reduced activation
gene expression of M2 markers such as Arg-1 and IL-10 ([1]; metformin 0.05 mM, 48 h): reduced M2 markers
gene expression of M1 and M2 markers ([1]; metformin at doses higher than 0.2 mM): reduced both M1 and M2 markers
approximate plasma concentration of metformin [2]: ~0.05 mM
reduced risk of death (pancreatic cancer): 32%
